According to article PMC11968394, “The effect of deuterated PLK1 inhibitor on its safety and efficacy in vivo” (Frontiers in Oncology, 2025):
Like-named read-outs stand apart in the source and are kept apart here.

Assay: Caco-2 permeability assay
Format: in vitro ADME
Conditions: human; for Papp A→B at 2 h, 5 μM / Papp B→A at 2 h, 5 μM: Caco-2, 5 μM
Description: Caco-2 cells were cultured in 10% FBS DMEM for 14-21 days before assays. […] HBSS was added to the opposite chamber. After 2 hours incubation at 37°C, samples were analyzed by LC-MS/MS. Fluorescein leakage was tested by adding 100 μM fluorescein to the upper chamber and measuring fluorescence after 30 minutes.

[1] = Caco-2, Caco-2, B-A, read-out: Recovery B-A%

CC(C)NCC(O)COc1cccc2ccccc12 (stereo not shown) [Propraolol, Propranolol]
recovery at 2 h, 5 μM [1]: 84.9%
Papp A→B at 2 h, 5 μM: 22.3 ×10⁻⁶ cm/s
Papp B→A at 2 h, 5 μM: 14.7 ×10⁻⁶ cm/s

C[C@H]1O[C@@H](O[C@H]2[C@@H](O)C[C@H](O[C@H]3[C@@H](O)C[C@H](O[C@H]4CC[C@@]5(C)[C@H](CC[C@@H]6[C@@H]5C[C@@H](O)[C@]5(C)[C@@H](C7=CC(=O)OC7)CC[C@]65O)C4)O[C@@H]3C)O[C@@H]2C)C[C@H](O)[C@@H]1O [Digoxin]
recovery at 2 h, 5 μM (Caco-2, Caco-2, A-B, read-out: Recovery A-B%): 78.5%
recovery at 2 h, 5 μM [1]: 101%
Papp A→B at 2 h, 5 μM: 0.9 ×10⁻⁶ cm/s
Papp B→A at 2 h, 5 μM: 26.1 ×10⁻⁶ cm/s
